Earlier results in patent publication US20180071214A1, “Pharmaceutical Oral Dose Formulation and Composition of Matter” (priority 2016, published 2018).

Key:
[1] = p-glycoprotein substrate

For `CC[C@]1(O)C[C@@H]2CN(CCc3c([nH]c4ccccc34)[C@@](C(=O)OC)(c3cc4c(cc3OC)N(C)[C@H]3[C@@](O)(C(=O)OC)[C@H](OC(C)=O)[C@]5(CC)C=CCN6CC[C@]43[C@@H]65)C2)C1` [vinblastinee], the intestinal absorption [1] is listed as “negligible intestinal absorption” and the “tissue effect after intravenous injection” value is listed as “severe tissue irritation and even damage”.
